Measured values published in patent US20060062732A1, “Medicine for detecting lipid components in vivo and vascular endoscope” (Yasumi UCHIDA, priority 2004, published 2006).

Assays:
[1] = Self-fluorescence of dyes and plaque substances by fluorescent microscopy; assay type: physicochemical; set-up: key to Self-fluorescence colour: B: blue.; G: green.; O: orange.; W: white.; Y: yellow; conditions: for Self-fluorescence present or not: exciting 360/emitting 420 nm or exciting 470/emitting 515 nm
[2] = target: T1, ApoB100 (apolipoprotein B100) (Homo sapiens, UniProt P04114); assay: Dye-evoked fluorescence of ApoB100, fluorescent microscopy; set-up: key: B: blue.; G: green.; O: orange.; W: white.; Y: yellow
T1 construct: purchased ICN Biomedicals, Ohio

[3] = target: T1, ApoB100 (apolipoprotein B100); assay: as above; set-up: key: B: blue.; Br: brown.; G: green.; Go: gold.; O: orange.; P: purple.; R: red.; SB: sky blue.; V: violet.; W: white.; Y: yellow; conditions: exciting 360 nm, emitting 420 nm
[4] = target: T1, ApoB100 (apolipoprotein B100); assay: as above; set-up: key: RO: reddish orange; conditions: ApoB (Table 4)
[5] = exciting 360 nm, emitting 420 nm
[6] = exciting 470 nm, emitting 515 nm
[7] = exciting filter 360 nm, emitting filter 420 nm
[8] = exciting filter 470 nm, emitting filter 515 nm

T1 sequence (P04114 28-4563, species assumed): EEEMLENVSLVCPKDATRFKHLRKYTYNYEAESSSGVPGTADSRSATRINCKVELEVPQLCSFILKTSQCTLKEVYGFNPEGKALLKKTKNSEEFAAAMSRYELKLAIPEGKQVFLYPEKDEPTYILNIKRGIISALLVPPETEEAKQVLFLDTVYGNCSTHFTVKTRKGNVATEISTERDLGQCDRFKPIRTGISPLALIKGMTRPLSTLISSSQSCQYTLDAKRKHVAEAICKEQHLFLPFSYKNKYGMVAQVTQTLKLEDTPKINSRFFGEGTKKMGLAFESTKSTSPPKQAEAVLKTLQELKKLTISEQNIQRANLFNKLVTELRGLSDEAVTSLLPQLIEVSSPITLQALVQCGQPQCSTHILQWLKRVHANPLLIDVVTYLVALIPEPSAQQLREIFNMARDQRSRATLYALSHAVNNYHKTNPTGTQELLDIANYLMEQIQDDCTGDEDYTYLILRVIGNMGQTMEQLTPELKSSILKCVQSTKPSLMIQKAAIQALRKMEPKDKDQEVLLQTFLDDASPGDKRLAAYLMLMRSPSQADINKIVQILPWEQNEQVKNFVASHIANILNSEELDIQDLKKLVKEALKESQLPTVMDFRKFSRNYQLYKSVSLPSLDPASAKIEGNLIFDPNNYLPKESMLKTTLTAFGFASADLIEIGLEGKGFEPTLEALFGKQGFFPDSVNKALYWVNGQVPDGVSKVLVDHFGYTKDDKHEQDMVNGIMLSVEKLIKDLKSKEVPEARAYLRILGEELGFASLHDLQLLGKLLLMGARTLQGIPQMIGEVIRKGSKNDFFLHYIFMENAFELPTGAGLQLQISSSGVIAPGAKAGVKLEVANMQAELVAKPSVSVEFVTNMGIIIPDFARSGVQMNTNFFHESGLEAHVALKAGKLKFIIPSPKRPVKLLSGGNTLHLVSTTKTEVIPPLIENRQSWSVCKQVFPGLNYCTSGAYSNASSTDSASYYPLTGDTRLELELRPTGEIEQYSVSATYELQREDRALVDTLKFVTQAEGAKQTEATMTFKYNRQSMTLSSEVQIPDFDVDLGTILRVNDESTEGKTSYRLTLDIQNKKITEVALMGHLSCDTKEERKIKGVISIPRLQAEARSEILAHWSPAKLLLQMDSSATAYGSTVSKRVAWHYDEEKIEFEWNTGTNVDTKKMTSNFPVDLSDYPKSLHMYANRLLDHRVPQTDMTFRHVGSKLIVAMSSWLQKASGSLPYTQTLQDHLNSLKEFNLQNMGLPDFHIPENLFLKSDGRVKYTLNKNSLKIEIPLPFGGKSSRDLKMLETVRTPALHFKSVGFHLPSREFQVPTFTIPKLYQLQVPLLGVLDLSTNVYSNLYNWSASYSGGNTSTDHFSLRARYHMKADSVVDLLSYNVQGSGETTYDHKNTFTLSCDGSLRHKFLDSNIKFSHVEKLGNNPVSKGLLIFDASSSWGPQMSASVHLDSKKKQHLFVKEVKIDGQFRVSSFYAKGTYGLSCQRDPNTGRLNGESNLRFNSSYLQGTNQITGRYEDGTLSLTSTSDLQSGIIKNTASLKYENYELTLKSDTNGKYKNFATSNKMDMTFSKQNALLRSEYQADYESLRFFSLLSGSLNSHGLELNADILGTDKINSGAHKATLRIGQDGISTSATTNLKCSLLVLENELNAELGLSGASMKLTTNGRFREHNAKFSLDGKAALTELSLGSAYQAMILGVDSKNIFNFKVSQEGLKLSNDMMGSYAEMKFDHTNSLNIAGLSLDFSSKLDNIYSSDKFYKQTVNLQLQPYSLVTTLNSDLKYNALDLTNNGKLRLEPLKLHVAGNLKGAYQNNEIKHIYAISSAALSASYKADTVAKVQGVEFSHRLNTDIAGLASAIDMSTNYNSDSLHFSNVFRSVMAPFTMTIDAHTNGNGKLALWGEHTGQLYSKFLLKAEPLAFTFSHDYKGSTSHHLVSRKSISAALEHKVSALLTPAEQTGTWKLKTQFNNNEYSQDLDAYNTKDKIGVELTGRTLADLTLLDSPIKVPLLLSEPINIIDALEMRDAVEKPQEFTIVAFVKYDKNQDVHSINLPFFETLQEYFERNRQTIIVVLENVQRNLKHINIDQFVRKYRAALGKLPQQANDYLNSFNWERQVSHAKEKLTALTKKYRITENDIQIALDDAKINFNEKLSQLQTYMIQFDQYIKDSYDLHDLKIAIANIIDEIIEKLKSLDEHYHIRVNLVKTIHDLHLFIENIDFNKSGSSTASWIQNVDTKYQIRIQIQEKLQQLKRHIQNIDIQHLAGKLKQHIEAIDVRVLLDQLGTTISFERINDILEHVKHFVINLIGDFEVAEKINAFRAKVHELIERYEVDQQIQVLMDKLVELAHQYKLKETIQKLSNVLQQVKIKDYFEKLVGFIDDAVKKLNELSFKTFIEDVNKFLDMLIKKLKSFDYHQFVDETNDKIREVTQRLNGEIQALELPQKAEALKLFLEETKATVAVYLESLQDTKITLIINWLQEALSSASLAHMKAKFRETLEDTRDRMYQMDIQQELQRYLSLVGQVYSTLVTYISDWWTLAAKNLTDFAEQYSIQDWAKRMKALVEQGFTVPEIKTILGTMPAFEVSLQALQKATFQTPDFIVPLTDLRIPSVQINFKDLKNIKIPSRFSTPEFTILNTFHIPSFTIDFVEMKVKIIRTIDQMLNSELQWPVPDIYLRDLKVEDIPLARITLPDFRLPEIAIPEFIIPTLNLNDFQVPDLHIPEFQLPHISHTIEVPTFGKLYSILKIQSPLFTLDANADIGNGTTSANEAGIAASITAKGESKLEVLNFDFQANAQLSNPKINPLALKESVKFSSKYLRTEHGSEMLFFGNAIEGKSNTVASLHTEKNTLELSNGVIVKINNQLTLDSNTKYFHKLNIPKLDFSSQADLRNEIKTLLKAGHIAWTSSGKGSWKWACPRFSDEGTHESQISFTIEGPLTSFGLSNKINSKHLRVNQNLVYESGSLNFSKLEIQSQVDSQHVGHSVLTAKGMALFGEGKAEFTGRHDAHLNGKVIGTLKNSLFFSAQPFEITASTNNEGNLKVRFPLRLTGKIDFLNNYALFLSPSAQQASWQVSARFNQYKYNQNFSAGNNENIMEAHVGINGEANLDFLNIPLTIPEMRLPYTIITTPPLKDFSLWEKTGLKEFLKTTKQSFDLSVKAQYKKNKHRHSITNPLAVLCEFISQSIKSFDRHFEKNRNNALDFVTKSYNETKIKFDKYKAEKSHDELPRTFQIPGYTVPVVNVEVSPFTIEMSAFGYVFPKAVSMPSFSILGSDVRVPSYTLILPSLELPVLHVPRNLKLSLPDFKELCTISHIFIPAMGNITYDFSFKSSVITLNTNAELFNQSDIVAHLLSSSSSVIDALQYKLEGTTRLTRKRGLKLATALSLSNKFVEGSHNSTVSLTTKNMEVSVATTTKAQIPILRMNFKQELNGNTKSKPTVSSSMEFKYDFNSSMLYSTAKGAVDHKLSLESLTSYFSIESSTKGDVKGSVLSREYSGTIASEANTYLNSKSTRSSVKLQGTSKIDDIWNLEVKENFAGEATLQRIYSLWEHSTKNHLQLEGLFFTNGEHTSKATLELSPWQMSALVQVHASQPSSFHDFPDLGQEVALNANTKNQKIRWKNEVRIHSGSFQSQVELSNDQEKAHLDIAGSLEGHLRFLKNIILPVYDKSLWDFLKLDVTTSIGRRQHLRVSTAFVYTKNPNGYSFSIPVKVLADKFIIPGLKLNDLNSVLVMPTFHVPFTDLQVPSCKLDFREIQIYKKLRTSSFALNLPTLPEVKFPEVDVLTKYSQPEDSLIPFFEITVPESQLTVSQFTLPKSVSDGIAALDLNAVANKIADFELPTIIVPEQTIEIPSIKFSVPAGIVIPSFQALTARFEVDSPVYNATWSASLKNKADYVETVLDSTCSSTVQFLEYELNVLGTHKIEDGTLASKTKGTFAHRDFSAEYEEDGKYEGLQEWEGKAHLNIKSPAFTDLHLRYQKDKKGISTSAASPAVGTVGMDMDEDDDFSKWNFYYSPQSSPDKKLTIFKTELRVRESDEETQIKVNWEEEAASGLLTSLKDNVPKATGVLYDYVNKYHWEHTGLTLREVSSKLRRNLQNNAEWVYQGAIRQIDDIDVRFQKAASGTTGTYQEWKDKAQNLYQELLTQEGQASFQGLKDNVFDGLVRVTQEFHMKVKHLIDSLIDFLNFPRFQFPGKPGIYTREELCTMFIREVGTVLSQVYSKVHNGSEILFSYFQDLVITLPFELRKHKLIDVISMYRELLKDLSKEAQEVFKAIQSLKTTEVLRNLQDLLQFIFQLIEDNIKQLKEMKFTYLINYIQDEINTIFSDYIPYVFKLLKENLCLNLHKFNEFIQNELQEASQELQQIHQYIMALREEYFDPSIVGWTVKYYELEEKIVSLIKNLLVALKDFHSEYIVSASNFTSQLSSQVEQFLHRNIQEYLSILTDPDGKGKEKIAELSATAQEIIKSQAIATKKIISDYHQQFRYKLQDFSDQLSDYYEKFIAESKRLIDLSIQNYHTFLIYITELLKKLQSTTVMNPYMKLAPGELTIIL

| Compound | Self-fluorescence present or not [1] | Dye-evoked fluorescence colour [2, 6] | Self-fluorescence colour [1, 7] | Self-fluorescence colour [1, 8] | also measured |
| --- | --- | --- | --- | --- | --- |
| CC[N+](CC)=c1ccc2nc3c(cc(N)c4ccccc43)oc-2c1 [Nile blue] | no self-fluorescence | G |  |  | Dye-evoked fluorescence colour [2, 5]: O |
| Cc1cc(-c2ccc(/N=N/c3ccc4c(S(=O)(=O)O)cc(S(=O)(=O)O)c(N)c4c3O)c(C)c2)ccc1/N=N/c1ccc2c(S(=O)(=O)O)cc(S(=O)(=O)O)c(N)c2c1O [Evans blue] | no self-fluorescence | O |  |  | Dye-evoked fluorescence colour [2, 5]: O |
| CC(C)CCC[C@@H](C)[C@H]1CC[C@H]2[C@@H]3CC=C4C[C@@H](O)CC[C@]4(C)[C@H]3CC[C@]12C [free Cholesterol] | had self-fluorescence |  | W | Y |  |
| phosphatidylcholine [PC] | had self-fluorescence |  | W |  |  |
| CC[n+]1c(-c2ccccc2)c2cc(N)ccc2c2ccc(N)cc21 [Homidium chloride] | has self-fluorescence |  | Y | O | Dye-evoked fluorescence colour [4, 5]: RO; Dye-evoked fluorescence colour [4, 6]: RO |

Second part, led by results:

| Self-fluorescence present or not [1] | Dye-evoked fluorescence colour [2, 6] | Self-fluorescence colour [1, 7] | Self-fluorescence colour [1, 8] | Compound | also measured |
| --- | --- | --- | --- | --- | --- |
| had self-fluorescence |  | O | O | CC1=C(/C=C/C(C)=C/C=C/C(C)=C/C=C/C=C(C)/C=C/C=C(C)/C=C/C2=C(C)CCCC2(C)C)C(C)(C)CCC1 [beta-Carotene] |  |
| no self-fluorescence |  |  |  | O=S(=O)([O-])c1cccc(N=Nc2ccc(Nc3ccccc3)cc2)c1.[Na+] [Metanyl yellow] |  |
| no self-fluorescence | O |  |  | Cc1cc(-c2ccc(/N=N/c3c(S(=O)(=O)[O-])cc4cc(S(=O)(=O)[O-])cc(N)c4c3O)c(C)c2)ccc1/N=N/c1c(S(=O)(=O)[O-])cc2cc(S(=O)(=O)[O-])cc(N)c2c1O.[Na+].[Na+].[Na+].[Na+] [Tripan blue] | Dye-evoked fluorescence colour [3]: P |
| had self-fluorescence |  | W | Y | CCCCC/C=C\C/C=C\CCCCCCCC(=O)O[C@H]1CC[C@@]2(C)C(=CC[C@H]3[C@@H]4CC[C@H]([C@H](C)CCCC(C)C)[C@@]4(C)CC[C@@H]32)C1 [Cholesteryl linolate] |  |
| no self-fluorescence |  |  |  | CC1=NN(c2cc(Cl)c(S(=O)(=O)[O-])cc2Cl)C(=O)C1N=Nc1ccc(S(=O)(=O)[O-])cc1.[Na+].[Na+] (stereo not drawn) [Lissamine fast yellow] |  |
